In US11319322B2, “Substituted aryl ether compound, preparation method thereof, pharmaceutical composition and use thereof” (Xiamen University, priority 2017, dated 2022):

Assays:
KIF5B-RET-BaF3 = molecular target: T1, KIF5B-RET-BaF3 (Homo sapiens, UniProt P07949); experiment: Growth inhibition of KIF5B-RET-BaF3 cells stably transfected with kinase (MTS); format: cell-based; conditions: 48 h, read-out: KIF5B-RET (IC50/nM)
T1 construct: fused on or other part: P33176 (Kinesin-1 heavy chain)
Protocol: (§1) Growth inhibitory activity of compounds on cell lines stably transfected with kinase
(§2) The activity of compounds against kinase RET is evaluated by their effect of inhibiting growth of cell lines stably transfected with kinase CCDC6-RET-BaF3, KIF5B-RET-BaF3, and wild-type BaF3 (Proc. Natl. Acad. Sci. USA., 2006, 103, 3153-8.). The growth of the cell lines stably transfected with kinase CCDC6-RET-BaF3, KIF5B-RET-BaF3 depends on their kinase activity. If a compound can inhibit the activity of the kinase RET per se or the activity of the RET signaling pathway, the compound can inhibit the growth of BaF3 cells stably transfected with kinase. […] Therefore, a larger ratio between IC50 of a compound to wild-type BaF3 and IC50 of the compound to the cell lines stably transfected with kinase CCDC6-RET-BaF3, KIF5B-RET-BaF3 indicates better targeting.
(§3) The specific test method is given as follows:
(§4) 1) Medium: DMEM (Dulbecco's modified eagle medium) or RPMI 1640 (containing 10% fetal bovine serum, 100 μg/mL ampicillin, 100 μg/mL streptomycin).
(§5) 2) Reagents: MTS reaction solution (containing 2 mg/mL of MTS [3-(4,5-dimethylthiazol-2-yl)-5-(3-carboxymethoxyphenyl)-2-(4-sulfophenyl)-2H-tetrazolium, inner Salt]; 100 μg/mL PES (phenazine […])).
(§6) 3) Compound test: cells stably transfected with kinase (CCDC6-RET-BaF3, KIF5B-RET-BaF3) or wild-type BaF3 cells (2×10^4 cells/well) were incubated into a 96-well culture plate, the volume of cell culture fluid was 90 μL, and then 10 μL of the compound at each gradient concentration was added (the highest concentration was 10 μM, which was diluted stepwise by ⅓, and 8 concentration points were set in total; the system contained 0.1% DMSO (dimethyl sulfoxide)). The cell plate with uniformly mixed compound was cultured in a cell culture incubator (37° C.; 5% CO2) for 48 h, then 20 μL of MTS reaction solution was added, uniformly mixed and incubated in the cell culture incubator (37° C.; 5% CO2) for 1-4 hr, OD values at 490 nm were measured by a microplate reader (VARIOSKAN FLASH, Thermo). Three parallels were set in each group of experiments, with 0.1% (a final concentration) DMSO as a negative control, and a medium without cells or compounds as a blank control. The cell growth inhibition rate was calculated by the following formula: Cell growth inhibition rate %=1−(ODexperimental group−ODblank group)/(ODnegative group−ODblank group)×100%
(§7) 4) IC50 calculation: The semi-inhibitory concentration of the compound acting on cell growth was calculated using GradPad Prism 5 software according to the measured cell growth inhibition rate.

CCDC6-RET-BaF3 = molecular target: T2, CCDC6-RET-BaF3 (Homo sapiens, UniProt P07949); experiment: Growth inhibition of CCDC6-RET-BaF3 cells stably transfected with kinase (MTS); format: cell-based; conditions: 48 h, read-out: CCDC6-RET (IC50/nM)
T2 construct: fused on or other part: Q16204 (Coiled-coil domain-containing protein 6)
Protocol: as §1, §2, §3, §4, §5, §6, §7

T1 sequence (P07949 whole entry, change not shown, the tested form may be a part): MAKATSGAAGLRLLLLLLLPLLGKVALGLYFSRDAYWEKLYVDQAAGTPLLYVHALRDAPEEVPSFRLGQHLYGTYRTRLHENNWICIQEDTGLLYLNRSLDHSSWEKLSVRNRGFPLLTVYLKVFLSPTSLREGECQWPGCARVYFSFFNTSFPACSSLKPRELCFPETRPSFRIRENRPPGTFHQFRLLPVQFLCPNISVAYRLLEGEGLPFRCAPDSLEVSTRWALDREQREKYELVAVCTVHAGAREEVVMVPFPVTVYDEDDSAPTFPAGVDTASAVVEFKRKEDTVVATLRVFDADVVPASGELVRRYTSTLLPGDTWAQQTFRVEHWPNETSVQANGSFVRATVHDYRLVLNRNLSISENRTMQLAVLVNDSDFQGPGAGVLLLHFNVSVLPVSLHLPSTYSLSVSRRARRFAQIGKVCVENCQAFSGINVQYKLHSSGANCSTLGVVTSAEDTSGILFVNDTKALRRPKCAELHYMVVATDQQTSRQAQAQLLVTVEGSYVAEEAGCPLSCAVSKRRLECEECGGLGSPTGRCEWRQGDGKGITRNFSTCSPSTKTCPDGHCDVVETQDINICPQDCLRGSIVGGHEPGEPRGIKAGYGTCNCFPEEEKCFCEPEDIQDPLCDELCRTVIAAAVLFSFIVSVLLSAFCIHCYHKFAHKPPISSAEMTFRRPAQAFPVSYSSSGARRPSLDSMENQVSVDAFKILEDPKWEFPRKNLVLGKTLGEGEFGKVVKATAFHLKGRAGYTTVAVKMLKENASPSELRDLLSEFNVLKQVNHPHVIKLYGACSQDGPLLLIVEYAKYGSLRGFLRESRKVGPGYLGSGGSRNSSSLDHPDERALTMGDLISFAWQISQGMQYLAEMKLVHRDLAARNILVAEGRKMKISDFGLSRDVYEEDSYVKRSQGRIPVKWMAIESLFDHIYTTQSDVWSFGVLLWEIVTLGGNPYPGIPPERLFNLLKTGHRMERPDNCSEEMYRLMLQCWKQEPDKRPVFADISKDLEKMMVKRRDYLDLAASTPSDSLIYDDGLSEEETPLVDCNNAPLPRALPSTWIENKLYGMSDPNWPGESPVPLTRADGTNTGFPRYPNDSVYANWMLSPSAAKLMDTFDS
T2 sequence (P07949 whole entry, change not shown, the tested form may be a part): as above

Cc1ccc(NC(=O)c2ccc(CN3CCN(C)CC3)c(C(F)(F)F)c2)cc1Oc1nc(-c2ccncc2)nc2c1cnn2C [II-i-2]
GI50 (KIF5B-RET-BaF3): 469 nM
GI50 (CCDC6-RET-BaF3): 617 nM

Cc1ccc(Oc2nc(-c3ccc(O)cc3)nc3c2ncn3C)cc1C(=O)Nc1ccc(CN2CCN(C)CC2)c(C(F)(F)F)c1 [I-n-8]
GI50 (KIF5B-RET-BaF3): 1330 nM
GI50 (CCDC6-RET-BaF3): 1210 nM

Cc1ccc(C(=O)Nc2ccc(CN3CCN(C)CC3)c(C(F)(F)F)c2)cc1Oc1nc(-c2ccccc2)nc2c1cnn2C [II-m-3]
GI50 (KIF5B-RET-BaF3): 97.7 nM
GI50 (CCDC6-RET-BaF3): 348 nM

Cc1ccc(Oc2nc(-c3ccncc3)nc3ccn(C)c23)cc1C(=O)Nc1ccc(CN2CCN(C)CC2)c(C(F)(F)F)c1 [III-n-4]
GI50 (KIF5B-RET-BaF3): 17.2 nM
GI50 (CCDC6-RET-BaF3): 43.1 nM

Cc1ccc(NC(=O)c2ccc(CN3CCN(C)CC3)c(C(F)(F)F)c2)cc1Oc1nc(-c2cccnc2)nc2c1cnn2C [II-i-1]
GI50 (KIF5B-RET-BaF3): 411 nM
GI50 (CCDC6-RET-BaF3): 477 nM

Cc1ccc(C(=O)Nc2ccc(CN3CCN(C)CC3)c(C(F)(F)F)c2)cc1Oc1nc(-c2ccc(O)cc2)nc2c1cnn2C [II-m-8]
GI50 (KIF5B-RET-BaF3): 56.9 nM
GI50 (CCDC6-RET-BaF3): 166 nM

CN1CCN(Cc2ccc(C(=O)Nc3cccc(Oc4nc(-c5ccncc5)nc5cc[nH]c45)c3)cc2C(F)(F)F)CC1 [III-h-2]
GI50 (KIF5B-RET-BaF3): 16.4 nM
GI50 (CCDC6-RET-BaF3): 16.8 nM

CCn1ncc2c(Oc3cc(C(=O)Nc4ccc(CN5CCN(C)CC5)c(C(F)(F)F)c4)ccc3C)nc(-c3ccncc3)nc21 [II-m-22]
GI50 (CCDC6-RET-BaF3): > 10000 nM

CC(C)n1cnc2c(Oc3cccc(NC(=O)c4ccc(CN5CCN(C)CC5)c(C(F)(F)F)c4)c3)nc(-c3ccncc3)nc21 [I-h-1]
GI50 (KIF5B-RET-BaF3): 2290 nM
GI50 (CCDC6-RET-BaF3): 4930 nM

CC(=O)NCC1CCN(c2ccc(NC(=O)c3ccc(C)c(Oc4nc(-c5ccncc5)nc5c4cnn5C)c3)cc2C(F)(F)F)CC1 [II-v-11]
GI50 (KIF5B-RET-BaF3): 646 nM
GI50 (CCDC6-RET-BaF3): 546 nM

Cc1ccc(C(=O)Nc2ccc(CN3CCN(C)CC3)c(C(F)(F)F)c2)cc1Oc1nc(-c2ccncc2)nc2c1cnn2C [II-m-2]
GI50 (KIF5B-RET-BaF3): 17.8 nM
GI50 (CCDC6-RET-BaF3): 30.2 nM

Cc1ccc(Nc2nc(Oc3cc(C(=O)Nc4ccc(CN5CCN(C)CC5)c(C(F)(F)F)c4)ccc3C)c3cnn(C)c3n2)cc1 [II-m-13]
GI50 (KIF5B-RET-BaF3): 172 nM
GI50 (CCDC6-RET-BaF3): 253 nM

Cc1ccc(Oc2nc(-c3cccnc3)nc3cc[nH]c23)cc1NC(=O)c1ccc(CN2CCN(C)CC2)c(C(F)(F)F)c1 [III-j-1]
GI50 (KIF5B-RET-BaF3): 3250 nM
GI50 (CCDC6-RET-BaF3): 5940 nM

Cc1ccc(NC(=O)c2ccc(CN3CCN(C)CC3)c(C(F)(F)F)c2)cc1Oc1ncnc2c1cnn2C [II-i-3]
GI50 (KIF5B-RET-BaF3): 1040 nM
GI50 (CCDC6-RET-BaF3): 881 nM

Cc1ccc(C(=O)Nc2ccc(CN3CCN(C)CC3)c(C(F)(F)F)c2)cc1Oc1nc(NC2CC2)nc2c1cnn2C [II-m-14]
GI50 (KIF5B-RET-BaF3): 21.6 nM
GI50 (CCDC6-RET-BaF3): 9.31 nM

Cc1ccc(C(=O)Nc2cc(C(F)(F)F)cc(C(F)(F)F)c2)cc1Oc1nc(-c2cccnc2)nc2c1cnn2C [II-v-1]
GI50 (KIF5B-RET-BaF3): 7940 nM
GI50 (CCDC6-RET-BaF3): 7230 nM

Cc1ccc(NC(=O)c2ccc(CN3CCN(C)CC3)c(C(F)(F)F)c2)cc1Oc1nc(-c2cccnc2)nc2ccn(C)c12 [III-i-3]
GI50 (KIF5B-RET-BaF3): 3630 nM
GI50 (CCDC6-RET-BaF3): 4340 nM

CN1CCN(Cc2ccc(NC(=O)c3cccc(Oc4cc(-c5cccnc5)nc5sccc45)c3)cc2C(F)(F)F)CC1 [VII-l-1]
GI50 (KIF5B-RET-BaF3): 1350 nM
GI50 (CCDC6-RET-BaF3): 1020 nM

CN1CCN(Cc2ccc(NC(=O)c3cc(Oc4nc(-c5ccncc5)nc5c4ncn5C)ccc3Cl)cc2C(F)(F)F)CC1 [I-o-2]
GI50 (KIF5B-RET-BaF3): 3.15 nM
GI50 (CCDC6-RET-BaF3): 20.6 nM

CC(C)n1cnc2c(Oc3ccc(Cl)c(C(=O)Nc4ccc(CN5CCN(C)CC5)c(C(F)(F)F)c4)c3)nc(-c3ccncc3)nc21 [I-o-12]
GI50 (KIF5B-RET-BaF3): 154 nM
GI50 (CCDC6-RET-BaF3): 55.2 nM

CN1CCN(Cc2ccc(NC(=O)c3cc(Oc4nc(-c5ccncc5)nc5c4cnn5C)ccc3Cl)cc2C(F)(F)F)CC1 [II-o-2]
GI50 (KIF5B-RET-BaF3): 130 nM
GI50 (CCDC6-RET-BaF3): 108 nM
